Consider 53 molecules from publication PMC5706701, “Development of a homogenous high-throughput assay for inositol hexakisphosphate kinase 1 activity” (PLoS ONE, 2017).

The experiment has as its target T1, Human IP6K1 (Homo sapiens, UniProt Q92551).
T1 construct: GST (N, cleaved yes); made in house; host or cells: C43 E. coli, pGEX-6P-2
As to the kind of experiment: IP6K1 high-throughput screen of the Sigma LOPAC (ADP-Glo Max, single point).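 Note: final compound concentration 10µM in 5% DMSO.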 The experiment is classed as biochemical. Background: In ADP-Glo the light output rises with the ADP produced.

Where [1] appears, read: LOPAC single-point screen, ADP-Glo Max luminescence raw signal per well.
Where [2] appears, read: LOPAC single-point screen, Z-score relative to plate average and StDev.
[3] abbreviates: LOPAC single-point screen, ADP-Glo Max raw signal per well.
[4] abbreviates: LOPAC single-point screen, Z-score from raw signal with plate average and StDev.
The mark [5] stands for this setting: Sigma LOPAC single-point screen, ADP-Glo Max raw signal per well.
Where [6] appears, read: Sigma LOPAC single-point screen, Z-score from plate average and StDev.
Setting [7] is: LOPAC single-point screen, Z-score against plate average and StDev.
Setting [8] is: LOPAC single-point screen, Z-score from plate average and StDev.

Counter-ions that a name gives are not always drawn. Like-named read-outs stand apart in the source and are kept apart here.

T1 sequence (Q92551 whole entry): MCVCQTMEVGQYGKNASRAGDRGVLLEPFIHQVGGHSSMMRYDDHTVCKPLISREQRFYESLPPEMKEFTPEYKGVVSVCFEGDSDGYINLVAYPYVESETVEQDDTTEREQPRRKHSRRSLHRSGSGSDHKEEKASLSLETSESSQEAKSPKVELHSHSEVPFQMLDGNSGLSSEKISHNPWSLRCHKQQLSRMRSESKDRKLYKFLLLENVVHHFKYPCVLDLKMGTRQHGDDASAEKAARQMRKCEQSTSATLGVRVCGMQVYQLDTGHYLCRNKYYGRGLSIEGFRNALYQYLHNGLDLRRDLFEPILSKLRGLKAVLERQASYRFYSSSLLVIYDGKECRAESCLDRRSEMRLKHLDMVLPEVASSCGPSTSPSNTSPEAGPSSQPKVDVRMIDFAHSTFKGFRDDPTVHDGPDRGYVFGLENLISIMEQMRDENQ

On to `CN(C(=O)CCCOc1ccc2[nH]c(=O)ccc2c1)C1CCCCC1` [Cilostamide], for which the “Raw Signal” value under setting [1] stood at 54164. This molecule also showed a Z-score under setting [2] of -0.6603.
In the case of `COc1ccc(C(=O)N2CCCC2=O)cc1` [Aniracetam], under setting [3], the “Raw Signal” value is recorded as 56032. The Z-score under setting [4] is recorded as -0.3313.
As for `O=C(O)Cc1c[nH]c2ccc(O)cc12` [5-Hydroxyindolacetic acid], under setting [5], the “Raw Signal” value amounted to 56978. In addition, under setting [6], the Z-score is recorded as 0.3678.
Turning to `CC(=O)SCC[N+](C)(C)C.[Cl-]` [Acetylthiocholine chloride], the “Raw Signal” value under setting [3] amounted to 58613. Under setting [7], this molecule registered a Z-score of 0.1233.
For `C[C@]12CC[C@H](OS(=O)(=O)[O-])CC1=CC[C@@H]1[C@@H]2CC[C@]2(C)C(=O)CC[C@@H]12.[Na+]` [Dehydroisoandrosterone 3-sulfate sodium], in that order: 55598 and 0.08752.
As to `CCN(CC)CCNC(=O)c1ccc(NC(C)=O)cc1.Cl` [N-Acetylprocainamide hydrochloride], the “Raw Signal” value under setting [1] was determined as 70393. Under setting [8], the Z-score amounted to 2.198.
For the molecule `Cl.c1ccc2c(N3CCNCC3)cccc2c1` [1-(1-Naphthyl)piperazine hydrochloride], under setting [3], the “Raw Signal” value came to 55645. The molecule also gave a Z-score under setting [7] of -0.07359.
In the case of `Cl.NCC(O)C1CCCCCCC1` (stereo not drawn), the “Raw Signal” value under setting [1] is reported as 52354. Under setting [2], this molecule had a Z-score of -0.5713.
For `Cl.c1ccc([C@H]2CN3CCSC3=N2)cc1` [(-)-Tetramisole hydrochloride], the “Raw Signal” value was determined as 55029 and the Z-score amounted to 0.1068.
`CNC1(C)C2CCC(C2)C1(C)C` (stereo not drawn) [Mecamylamine hydrochloride]: under setting [3], the “Raw Signal” value is given as 55214. The Z-score under setting [7] worked out at 0.1379.
As for `CCCc1c(OCCCOc2ccc(OCC(=O)O)cc2)ccc(C(C)=O)c1O` [L-165,041], the “Raw Signal” value under setting [5] was 57961. This molecule also returned a Z-score under setting [6] of 0.5674.
Regarding `CN(C)C/C=C(/c1ccc(Br)cc1)c1cccnc1` [Zimelidine dihydrochloride], the “Raw Signal” value under setting [1] was found to be 63127. The Z-score under setting [8] was 1.38.
In the case of `COc1ccc(NC(=O)c2ccc(-c3ccc(-c4noc(C)n4)cc3C)cc2)cc1N1CCN(C)CC1.Cl` [GR 127935 hydrochloride], the “Raw Signal” value under setting [1] is on record as 51529. Under setting [2], this molecule came in with a Z-score of -0.4813.
Regarding `CC[N+](C)(C)c1cccc(O)c1` [Edrophonium chloride], the “Raw Signal” value under setting [5] worked out at 58129. Moreover, the Z-score under setting [6] is 0.6015.
For the molecule `COc1ccc2c(c1OC)C(=O)OC2C1c2cc3c(cc2CCN1C)OCO3` (single isomer, unassigned; (+)) [(+)-Hydrastine], the “Raw Signal” value under setting [3] stood at 55977. Further, under setting [7], the Z-score is given as 0.1645.
On to `C[C@]12C=CC(=O)C=C1CC[C@@H]1C2=CC[C@]2(C)[C@@H](C(=O)CN3CCN(c4cc(N5CCCC5)nc(N5CCCC5)n4)CC3)CC[C@@H]12.O=C(O)/C=C\C(=O)O` [U-74389G maleate], for which the “Raw Signal” value under setting [1] was found to be 52844. Under setting [2], the Z-score is -0.6178.
As for `O=C(O)/C=C/C(=O)O.O=C(O)/C=C/C(=O)O.O=C(O)/C=C/C(=O)O.O=C1CCCN1CC#CCN1CCCC1.O=C1CCCN1CC#CCN1CCCC1` [Oxotremorine sesquifumarate salt], the “Raw Signal” value under setting [3] was 55438. Also, the Z-score under setting [7] amounted to 0.1755.
For `CN(Cc1cnc2nc(N)nc(N)c2n1)c1ccc(C(=O)N[C@@H](CCC(=O)O)C(=O)O)cc1` [Methotrexate], under setting [5], the “Raw Signal” value is recorded as 60039. This molecule returned a Z-score under setting [6] of 0.3744.
For `CN(C)CCC(c1ccc(Cl)cc1)c1ccccn1.O=C(O)/C=C\C(=O)O` (racemic) [(±)-Chlorpheniramine maleate], in that order: 60371 and 0.4329.
Consider `NNc1nncc2ccccc12` [Hydralazine hydrochloride], for which, under setting [3], the “Raw Signal” value is given as 53853. In addition, the Z-score under setting [4] is listed as -0.2669.
With `NS(=O)(=O)c1cc2c(cc1Cl)NC(C1CC3C=CC1C3)NS2(=O)=O` (stereo not drawn) [Cyclothiazide], the “Raw Signal” value under setting [5] came to 61194. In addition, the Z-score under setting [6] amounted to 1.224.
As for `CC(=O)[C@H]1CC[C@H]2[C@@H]3CCC4=CC(=O)CC[C@]4(C)[C@H]3CC[C@]12C` [Progesterone], the “Raw Signal” value under setting [3] is listed as 53663. Under setting [4], this molecule returned a Z-score of -0.1227.
Take `CCN(CC)CC.Nc1ncnc2c1ncn2C1OC2COP(O)(=S)O[C@@H]2[C@@H]1O` (stereo partly drawn) [Rp-cAMPS triethylamine]: the “Raw Signal” value amounted to 55695 and the Z-score was -0.3907.
Turning to `NCCc1c[nH]c2ccc(O)cc12` [Serotonin hydrochloride], under setting [5], the “Raw Signal” value was determined as 60327. The molecule also registered a Z-score under setting [6] of 1.048.
Regarding `N=C(N)c1ccc(OCCCCCOc2ccc(C(=N)N)cc2)cc1` [Pentamidine isethionate], the “Raw Signal” value under setting [3] was 54696. The same molecule came in with a Z-score under setting [7] of 0.05083.
On to `NCC(CP(=O)(O)O)c1ccc(Cl)cc1` (stereo not drawn) [Phaclofen], for which the “Raw Signal” value under setting [5] worked out at 61057. Under setting [6], this molecule returned a Z-score of 0.9779.
`Br.NCc1cc(O)no1` [Muscimol hydrobromide]: the “Raw Signal” value under setting [3] amounted to 54732. Moreover, the Z-score under setting [7] is on record as -0.08835.
For `CC(C)(C)c1ccc(S(=O)(=O)/C=C/C#N)cc1` [Bay 11-7085], in that order: 58167 and 0.04472.
For `CC(C[N+](C)(C)C)OC(N)=O` (stereo not drawn) [Bethanechol chloride], in that order: 59240 and 0.2337.
Turning to `CCn1nc(C(=O)O)c(=O)c2cc3c(cc21)OCO3` [Cinoxacin], the “Raw Signal” value under setting [3] is listed as 58068. Also, the Z-score under setting [7] worked out at 0.02728.
As for `CCCCCCCCCCCCCCCCOCC(COCC(F)(F)F)OP(=O)(O)OC` (stereo not drawn) [MJ33], the “Raw Signal” value under setting [5] is listed as 57341. Under setting [6], the Z-score was 0.4953.
Consider `N#CC(=C(/N)Sc1ccccc1N)/C(C#N)=C(/N)Sc1ccccc1N` [U0126], for which the “Raw Signal” value under setting [3] was found to be 55334. Under setting [4], the Z-score is given as -0.134.
For the molecule `CN1CCN(C2Cc3ccccc3Sc3ccc(Cl)cc32)CC1.O=C(O)/C=C\C(=O)O` (racemic) [(±)-Octoclothepin maleate], the “Raw Signal” value under setting [5] stood at 60782. This molecule also had a Z-score under setting [6] of 1.073.
`O=C(O)/C(=C/c1c(C(=O)O)[nH]c2cc(Cl)cc(Cl)c12)c1ccccc1` [MDL 105,519] showed a Z-score of 0.03839.
`CCCN1CCC[C@@H]2Cc3nc(N)ncc3C[C@H]21.Cl.Cl` [Quinelorane dihydrochloride]: under setting [1], the “Raw Signal” value amounted to 53110. Further, the Z-score under setting [2] is reported as -0.5661.
In the case of `COc1ccccc1N1CCN(CCN(C(=O)c2ccc(I)cc2)c2ccccn2)CC1.Cl` [p-MPPI hydrochloride], the “Raw Signal” value under setting [5] was found to be 60360. Also, the Z-score under setting [6] is listed as 1.003.
`CC(C)NCC(O)c1ccc(O)c(O)c1.Cl` (racemic) [(±)-Isoproterenol hydrochloride]: the “Raw Signal” value under setting [5] turned out to be 57305. The Z-score under setting [6] was 0.4892.
As for `Nc1ncnc2c1ncn2[C@@H]1O[C@H](C(=O)NC2CC2)[C@@H](O)[C@H]1O` [5 -(N-Cyclopropyl)carboxamidoadenosine], the “Raw Signal” value under setting [3] is given as 57761. Besides, the Z-score under setting [7] is on record as -0.02679.
`O=S(=O)(O)C1CCNCC1` [Piperidine-4-sulphonic acid]: the “Raw Signal” value under setting [3] worked out at 54931. For the same molecule, the Z-score under setting [4] was -0.2123.
In the case of JL-18, under setting [1], the “Raw Signal” value came to 64215. In addition, under setting [8], the Z-score worked out at 1.65.
For `N#CC(C#N)=Cc1cc(O)c(O)c(O)c1` [Tyrphostin 25], the “Raw Signal” value under setting [1] was 46819. Besides, under setting [2], the Z-score is -1.788.
`Oc1c2ccccc2c2c3c(cccc13)N=N2` [SP600125]: the “Raw Signal” value under setting [5] worked out at 57057. In addition, the Z-score under setting [6] was 0.3838.
In the case of `Cc1cccc(C)c1OCC(C)N.Cl` (stereo not drawn) [Mexiletene hydrochloride], the “Raw Signal” value under setting [1] is listed as 50431. The Z-score under setting [2] is reported as -0.6658.
Take `N=C1Sc2ccccc2C2=NCCCN12` [PD 404,182]: the “Raw Signal” value under setting [3] turned out to be 56268. The molecule further had a Z-score under setting [7] of 0.315.
The corresponding values for `COC(=O)[C@H]1[C@H]2C[C@@H]3c4[nH]c5cc(OC)ccc5c4CCN3C[C@H]2C[C@@H](OC(=O)c2cc(OC)c(OC)c(OC)c2)[C@@H]1OC` [Reserpine] are 59002 and 0.1918.
Consider `COc1cc([C@@H]2c3cc4c(cc3[C@@H](O[C@@H]3O[C@@H]5CO[C@@H](C)O[C@H]5[C@H](O)[C@H]3O)[C@H]3COC(=O)[C@H]23)OCO4)cc(OC)c1O` [Etoposide], for which the “Raw Signal” value under setting [3] is given as 53339. Moreover, the Z-score under setting [4] is -0.3713.
As to `C[C@H](Cc1ccc(OCC(=O)[O-])cc1)NC[C@H](O)c1cccc(Cl)c1.[Na+]` [BRL 37344 sodium], the “Raw Signal” value under setting [1] turned out to be 53982. The Z-score under setting [2] is -0.6924.
On to `O=C1Nc2ccc(I)cc2/C1=C/c1cc(Br)c(O)c(Br)c1` [GW5074], for which the “Raw Signal” value under setting [1] is 51521. Moreover, under setting [2], the Z-score is reported as -0.7405.
In the case of `Nn1nnc2ccccc21` [1-Aminobenzotriazole], the “Raw Signal” value under setting [1] came out at 53212. Also, under setting [2], the Z-score is -0.828.
Consider `CC(C)NC[C@@H](O)COc1ccc(CC(N)=O)cc1` [R(+)-Atenolol], for which, under setting [1], the “Raw Signal” value stood at 54301. Further, the Z-score under setting [2] is on record as -0.6362.
`O=C1NCC2(CCN(CCc3ccccc3)CC2)O1` [Fenspiride hydrochloride]: under setting [3], the “Raw Signal” value amounted to 54758. Under setting [7], this molecule showed a Z-score of -0.08307.
For the molecule `C=C[C@@]1(C)CC(=O)[C@]2(O)[C@@]3(C)[C@@H](O)CCC(C)(C)[C@@H]3[C@H](O)[C@H](OC(C)=O)[C@@]2(C)O1` [Forskolin], under setting [5], the “Raw Signal” value is reported as 61603. Also, the Z-score under setting [6] is 1.307.
Turning to `COC(=O)[C@@H](N)Cc1ccc(O)c(O)c1.Cl`, the “Raw Signal” value under setting [1] is listed as 38457. Under setting [2], this molecule displayed a Z-score of -3.394.
